Results: ChEMBL document CHEMBL1201862, “PubChem BioAssay data set” (2004)
Active and inactive are the calls of the source.

What was measured:
[1] = target: T1, Heat shock factor protein 1 (Mus musculus, UniProt P38532); test: decrease of HSF1-responsive luciferase luminescence – cell-based, NIH3T3, dose retest, confirmation (AID 2382); format: functional;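 further: NIH3T3 fibroblasts with HSF1-driven luciferase reporter stressed by proteasome inhibitor MG132; luminescence from HSF1-driven luciferase expression after 8 hours of MG132 stress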
T1 sequence (P38532 whole entry): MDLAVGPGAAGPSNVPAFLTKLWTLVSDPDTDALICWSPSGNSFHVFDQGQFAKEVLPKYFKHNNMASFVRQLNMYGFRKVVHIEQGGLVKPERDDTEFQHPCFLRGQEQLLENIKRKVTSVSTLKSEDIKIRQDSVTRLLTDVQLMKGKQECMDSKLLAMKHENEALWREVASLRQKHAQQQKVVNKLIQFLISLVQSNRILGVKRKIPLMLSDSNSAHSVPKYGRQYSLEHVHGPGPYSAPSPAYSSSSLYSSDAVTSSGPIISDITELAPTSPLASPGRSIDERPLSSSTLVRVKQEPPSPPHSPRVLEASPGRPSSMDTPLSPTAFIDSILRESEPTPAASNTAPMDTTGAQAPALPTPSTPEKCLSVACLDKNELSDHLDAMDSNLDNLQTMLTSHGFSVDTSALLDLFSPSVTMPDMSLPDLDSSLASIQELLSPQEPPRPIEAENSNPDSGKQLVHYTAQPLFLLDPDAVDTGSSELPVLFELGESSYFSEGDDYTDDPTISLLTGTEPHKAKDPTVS

[2] = target: T1, Heat shock factor protein 1; test: enhancement of HSF1-driven luciferase signal – cell-based, NIH3T3, luminescence, dose retest, confirmation (AID 435004); format: functional;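 further: stress induced by proteasome inhibitor MG132 added 30 min after compound; luciferase reporter driven by HSF1 response element in NIH3T3 cells; actives raise luminescence as potentiators of the MG132 stress response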
[3] = target: Cytochrome P450 2C19 (Homo sapiens, UniProt P33261); test: Cytochrome panel assay with activity outcomes. Panel member name: p450-cyp2c19 Compounds with AC50 equal or less than 10 uM are considered active; format: functional; settings: read-out: AC50
[4] = tested on: Streptococcus sp. 'group A'; test: Streptococcus pyogenes SK(-)GAS viability under kanamycin – luminescence, BacTiterGlo, confirmation, counter-screen for streptokinase expression inhibitor project, dose response (AID 1900); format: functional, organism-based
[5] = tested on: Streptococcus; test: GAS UMAA2166 growth inhibition – luminescence, BacTiterGlo, counter-screen for streptokinase expression inhibitor project, dose response (AID 1915); format: functional, organism-based;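 further: potency for reduction of bacterial viability or growth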
[6] = luciferase reporter signal suppression in cells – H4 neuroglioma cells, luminescence, dose response (AID 1990); format: functional, cell-based
[7] = Luminescence Cell-Based Dose Response HTS to Identify Inhibitors of 5'UTR Stem-Loop Driven Prion Protein mRNA Translation in H4 Neuroglioblastoma Cells. [Related pubchem assays: 1827 (Project Summary), 1813 (Primary HTS)]; format: functional
[8] = alpha-synuclein stem-loop luciferase translation blockers – H4 neuroglioma cells, luminescence, confirmation (AID 1988); format: functional, cell-based
[9] = Trypanosoma cruzi growth suppression in host cells – NIH3T3 host cells, beta-gal luminescence, confirmation (AID 2044); format: functional, cell-based;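 further: intracellular parasites grown in NIH/3T3 mouse fibroblasts as host cells; luminescent beta-galactosidase reporter signal from transgenic T. cruzi replicating inside host cells; inhibitors lower the luminescence signal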
[10] = NIH3T3 cell viability loss – ATP luminescence, mouse fibroblasts, counter-screen, dose response (AID 2010); format: functional, cell-based;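 further: cells exposed to compound for about 90 hours before reading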

Chain of Cytochrome P450 2C19 (P33261 whole entry): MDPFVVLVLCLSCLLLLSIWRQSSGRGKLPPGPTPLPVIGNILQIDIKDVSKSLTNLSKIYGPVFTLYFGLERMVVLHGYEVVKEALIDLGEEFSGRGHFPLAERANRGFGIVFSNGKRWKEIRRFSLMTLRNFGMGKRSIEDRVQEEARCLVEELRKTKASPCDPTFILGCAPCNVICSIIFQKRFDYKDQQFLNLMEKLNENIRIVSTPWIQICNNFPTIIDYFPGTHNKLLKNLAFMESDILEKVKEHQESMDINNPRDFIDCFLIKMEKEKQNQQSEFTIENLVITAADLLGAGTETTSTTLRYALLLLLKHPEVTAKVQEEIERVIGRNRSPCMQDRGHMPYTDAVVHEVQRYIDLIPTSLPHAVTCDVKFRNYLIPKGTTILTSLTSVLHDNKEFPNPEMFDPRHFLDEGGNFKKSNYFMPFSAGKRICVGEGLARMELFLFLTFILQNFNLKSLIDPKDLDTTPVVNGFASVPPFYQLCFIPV

COc1ccc(Cl)cc1S(=O)(=O)N1CCC(C(=O)NCCc2ccccc2)CC1
EC50 [1]: > 195 µM (not active)

NC(=O)c1c(NC(=O)Cc2ccccc2)sc2c1CCN(Cc1ccccc1)C2
EC50 [2]: > 260 µM (inactive)

O=c1c(-c2ccccc2)nc2cnc(N3CCNCC3)nc2n1C1CC1
AC50 [3]: 39.8 µM (inconclusive)

CCC1CCCCN1S(=O)(=O)c1ccc(C(=O)Nc2nnc(C3CC3)o2)cc1 (stereo not given)
EC50 [4]: 4.34 µM (active) | EC50 [5]: 7.56 µM (active)

Cc1ccc(C(C)C)c(OCC(=O)Nc2ccc3c(c2)nc(CCN2CCCCC2)n3C)c1
EC50 [6]: 10 µM (active) | EC50 [7]: 35.8 µM (active) | EC50 [8]: 11.4 µM (active)

Cc1cc(C)c(NC(=O)CSc2nncn2-c2cccnc2)c(C)c1
EC50 [1]: > 195 µM (not active)

Cc1ccc(-c2csc3ncnc(-n4nnc5ccccc54)c23)cc1C
EC50 [6]: 15 µM (active) | EC50 [7]: > 120 µM (not active) | EC50 [8]: > 60 µM (not active)

CC(=O)O[C@@]12CO[C@@H]1C[C@H](O)[C@@]1(C)C(=O)[C@H](O)C3=C(C)[C@@H](OC(=O)[C@H](O)[C@@H](NC(=O)OC(C)(C)C)c4ccccc4)C[C@](O)([C@@H](OC(=O)c4ccccc4)[C@H]21)C3(C)C
EC50 [9]: < 0.1 µM (active)

COc1ccc(CCNc2ncnc3c2c(C)c(C)n3CCO)cc1OC
EC50 [2]: > 260 µM (inactive)

CCOC(=O)N1CCN(C(=O)c2ccc3nc4ccc(Cl)cc4c(=O)n3c2)CC1
EC50 [6]: > 120 µM (not active) | EC50 [7]: 37.5 µM (active) | EC50 [8]: 7.83 µM (active)

CC1CC(C)(C)N=C(S)N1CCC(=O)NCc1ccc(Cl)cc1 (stereo not given)
EC50 [6]: > 120 µM (not active) | EC50 [7]: 33.7 µM (active) | EC50 [8]: > 120 µM (not active)

O=C(O)CCNS(=O)(=O)c1ccccc1C(F)(F)F
EC50 [1]: > 195 µM (not active)

O=C(Nc1cccc(-c2nc3ncccc3o2)c1)c1ccco1
EC50 [9]: 0.249 µM (active) | EC50 [10]: > 60 µM (not active)

CCCCCn1c(SCc2cccc(C)c2)nc2c1c(=O)[nH]c(=O)n2C
EC50 [2]: > 260 µM (inactive)

CCOc1cc(/C=C2\C(=N)N3N=C(C)SC3=NC2=O)ccc1OCCOc1ccccc1
EC50 [1]: > 195 µM (not active)

Cc1ccc(OCC(O)CNCc2ccc(F)cc2)cc1 (stereo not given)
EC50 [9]: 0.321 µM (active) | EC50 [10]: > 60 µM (not active)

Cc1noc(C)c1-c1cc(Nc2ccccc2)ncn1
AC50 [3]: 20 µM (inconclusive)

Cc1cc(N2CCN(c3ccc(F)cc3)CC2)nc2cc(O)ccc12
EC50 [1]: > 195 µM (not active)

Cc1cc(NC(=O)CCC(=O)N(CC(=O)NC2CCCC2)Cc2cccs2)no1
EC50 [2]: > 260 µM (inactive)

O=C1Nc2ccccc2N(O)N1c1cc(-c2ccccc2Cl)no1
EC50 [6]: 31.6 µM (active) | EC50 [7]: 70.3 µM (active) | EC50 [8]: > 120 µM (not active)

CC(C)NC(=O)N(O)C1N(Cc2ccc3c(c2)OCO3)C(=S)SC1(C)C (stereo not given)
EC50 [1]: > 195 µM (not active)

COc1ccc(OCCN2C(=O)c3ccccc3C2=O)cc1
EC50 [1]: > 195 µM (not active)

N#Cc1cccc(-c2nc(NCCN3CCOCC3)c3ccccc3n2)c1
AC50 [3]: 15.8 µM (inconclusive)

COc1cc2c(c(O)c1OC)C(=O)C(OC)CCC2 (stereo not given)
AC50 [3]: 6.31 µM (inconclusive)

CC1CN(C(=O)c2ccccc2)/C(=N/c2cccc(S(=O)(=O)N(C)C)c2)S1 (stereo not given)
EC50 [6]: > 120 µM (not active) | EC50 [7]: > 120 µM (not active) | EC50 [8]: > 120 µM (not active)

Cn1cc(C(=O)N/N=C/c2cc(Br)cs2)c2ccccc21
EC50 [2]: 42.9 µM (active)

COc1cc(O)cc2c1C(=O)OC(C)CCCC(=O)CCC/C=C\2 (stereo not given)
EC50 [2]: > 260 µM (inactive)

COc1ccccc1N(CC(=O)N/N=C(\C)c1ccccc1O)S(=O)(=O)c1ccc(C)cc1
EC50 [9]: 4.7 µM (active) | EC50 [10]: 5.18 µM (active)

CN1CCN(/N=C/c2cccc(Cl)c2Cl)CC1
EC50 [9]: 0.321 µM (active) | EC50 [10]: > 60 µM (not active)

O=C(Cc1cccs1)N/N=C/c1ccco1
EC50 [4]: 2.88 µM (active) | EC50 [5]: 2.18 µM (active)

C[C@H]1[C@H](C)CC[C@]2(C(=O)O)CC[C@]3(C)C(=CC[C@@H]4[C@@]5(C)C[C@@H](O)[C@H](O)C(C)(C)[C@@H]5CC[C@]43C)[C@H]12 [COROSOLIC ACID]
EC50 [4]: 2.92 µM (active) | EC50 [5]: 2.79 µM (active)
